Assay results as given in the NIST ThermoML archive (doi:10.1021/acs.jced.6b00269).

Conditions: for viscosity / mass density: 101.33 kPa, Liquid; for viscosity: Cone and plate viscometry; for mass density: Vibrating tube method

CCCCCCCCCCCCCC[P+](CCCCCC)(CCCCCC)CCCCCC.O=[N+]([O-])c1cn[n-]c1 [trihexyl(tetradecyl)phosphonium 4-nitropyrazolide]
Conditions | mass density [kg/m3] | viscosity [mPa·s]
278.15 K | – | 3560
283.15 K | 948.8 | 2290
288.15 K | 945.6 | 1500
293.15 K | 942.3 | 1020
295.15 K | 941.1 | –
298.15 K | 939.3 | 710
303.15 K | 936.4 | 510
308.15 K | 933.4 | 375
313.15 K | 930.4 | 280
318.15 K | 927.4 | 214
323.15 K | 924.5 | 167
328.15 K | 921.6 | 133
333.15 K | 918.7 | 108
338.15 K | 915.8 | 88
343.15 K | 912.8 | 74
348.15 K | 909.9 | –
353.15 K | 907 | –

Conditions | Glass transition temperature [°C]
Glass, DSC | -75

CC(=O)[O-].CCCCCCCCCCCCCC[P+](CCCCCC)(CCCCCC)CCCCCC [trihexyl(tetradecyl)phosphonium acetate]
Conditions | mass density [kg/m3] | viscosity [mPa·s]
278.15 K | – | 1820
283.15 K | 895 | 1200
288.15 K | 891.9 | 814
293.15 K | 888.9 | 566
295.15 K | 887.6 | –
298.15 K | 885.8 | 406
303.15 K | 882.8 | 298
308.15 K | 879.8 | 224
313.15 K | 876.8 | 172
318.15 K | 873.7 | 135
323.15 K | 870.7 | 107
328.15 K | 867.7 | –
333.15 K | 864.7 | –
338.15 K | 861.7 | –
343.15 K | 858.7 | –
348.15 K | 855.7 | –
353.15 K | 852.7 | –
